From publication PMC3758491 (Pesticide biochemistry and physiology, 2013)
Like-named read-outs stand apart in the source and are kept apart here.

Experiments:
murine AChE (mAChE) [1] = target: T1, murine AChE (mAChE) (Mus musculus, UniProt P21836); test: biochemical
T1 sequence (P21836 32-614): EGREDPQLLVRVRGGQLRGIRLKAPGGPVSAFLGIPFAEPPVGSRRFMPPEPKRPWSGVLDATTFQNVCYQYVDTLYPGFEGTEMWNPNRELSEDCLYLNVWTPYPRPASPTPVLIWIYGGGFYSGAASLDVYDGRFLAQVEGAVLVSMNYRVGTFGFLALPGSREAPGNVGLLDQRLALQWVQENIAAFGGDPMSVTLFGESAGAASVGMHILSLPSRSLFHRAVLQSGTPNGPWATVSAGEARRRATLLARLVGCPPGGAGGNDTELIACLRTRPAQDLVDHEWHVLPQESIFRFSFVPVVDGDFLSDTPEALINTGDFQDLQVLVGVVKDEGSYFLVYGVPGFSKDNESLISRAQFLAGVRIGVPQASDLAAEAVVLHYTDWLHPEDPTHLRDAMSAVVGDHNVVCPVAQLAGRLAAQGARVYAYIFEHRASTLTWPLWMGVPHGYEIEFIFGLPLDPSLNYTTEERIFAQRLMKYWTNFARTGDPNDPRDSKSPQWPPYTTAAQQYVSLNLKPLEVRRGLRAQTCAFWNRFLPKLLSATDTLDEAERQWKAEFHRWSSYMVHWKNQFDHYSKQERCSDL

murine AChE (mAChE) [2] = target: T1, murine AChE (mAChE); test: biochemical; type: binding
human recombinant AChE = details: cited from earlier work
murine AChE (mAChE) [3] = target: T1, murine AChE (mAChE); test: Equilibrium binding of TFT to mAChE
[4] = IC50 values (Mean ± SEM), Reduction of AChE activity
[5] = IC50 values (Mean ± SEM), Reduction of TFT Fluorescence
[6] = read-out: IC50 values (Mean ± SEM), Reduction of AChE activity, pH 7.4
[7] = read-out: IC50 values (Mean ± SEM), Reduction of TFT Fluorescence, pH 7.4

| Compound | IC50 (murine AChE (mAChE) [1]; [4]) [nM] | Ratio = IC50 TFT assay/IC50 Ellman assay (murine AChE (mAChE) [2]) | IC50 (murine AChE (mAChE) [2]; [5]) [nM] | other results |
| --- | --- | --- | --- | --- |
| CC[N+](C)(C)c1cccc(O)c1 [Edrophonium, edrophonium] | 3430 | 0.33 | 1120 | fold lower IC50 in TFT assay than in Ellman assay (murine AChE (mAChE) [2]): 3 fold; maximum percentage reduction of total TFT fluorescence (murine AChE (mAChE) [2]): around 30% |
| CNC(=O)Oc1ccccc1OC(C)C [Propoxur, propoxur] | 466 | 0.13 | 60 | fold lower IC50 in TFT assay than in Ellman assay (murine AChE (mAChE) [2]): 7.7 fold |
| CCC(C)CSc1ccccc1OC(=O)NC (stereo not shown) [Compound 2, 2-(2-methylbutylthio)phenyl methylcarbamate] | 10300 | 0.9 | 8900 |  |
| COc1cc2c3cc1Oc1cc(ccc1O)C[C@@H]1c4c(cc(OC)c(O)c4Oc4ccc(cc4)C[C@@H]3N(C)CC2)CC[N+]1(C)C [Tubocurarine, d-tubocurarine] | 69000 | 0.7 | 50000 | IC50 (murine AChE (mAChE) [1]; IC50, Ellman assay): 50000 to 70000 nM; IC50 (murine AChE (mAChE) [2]; IC50, TFT assay): 50000 to 70000 nM |
| CC[n+]1c(-c2ccccc2)c2cc(N)ccc2c2ccc(N)cc21 [Ethidium Bromide, ethidium bromide] | 4000 | 4.1 | 16000 | TFT/Ellman IC50 ratio (murine AChE (mAChE) [2]): around four times higher |
| C=CC[N+](C)(C)c1ccc(CCC(=O)CCc2ccc([N+](C)(C)CC=C)cc2)cc1.[Br-].[Br-] [BW284C51, BW284c51] |  | 1.9 |  | IC50 (murine AChE (mAChE) [1]; [6]): 4.4 nM; IC50 (murine AChE (mAChE) [2]; [7]): 8.3 nM |
| CNC(=O)Oc1cccc(C(C)(C)C)c1 [Compound 1, 3-tert-butylphenyl methylcarbamate] | 62 | 0.4 | 25 |  |
| CNC(=O)O/N=C/C(C)(C)SC [Aldicarb, aldicarb] | 645 | 0.9 | 565 |  |
| CC[N+](C)(CC)CCC[n+]1c(-c2ccccc2)c2cc(N)ccc2c2ccc(N)cc21 [Propidium Iodide, propidium iodide] | 662 | 1.0 | 670 | IC50 (murine AChE (mAChE) [1]; IC50, Ellman assay): 700 nM; TFT fluorescence remaining after adding propidium iodide (murine AChE (mAChE) [2]): 0%; IC50 (murine AChE (mAChE) [2]; IC50, TFT assay): 700 nM |
| CNC(=O)Oc1cccc2c1OC(C)(C)O2 [Bendiocarb, bendiocarb] | 46 | 0.4 | 20 |  |
| benzylpiperidine |  | 0.95 |  | IC50 (murine AChE (mAChE) [1]; [6]): 167000 nM; maximum percentage reduction of total TFT fluorescence (murine AChE (mAChE) [2]): around 30%; IC50 (murine AChE (mAChE) [2]; [7]): 159000 nM; IC50 (murine AChE (mAChE) [2]; read-out: potency (IC50) for reducing thioflavin-T fluorescence): 159000 nM |
| Cc1nc(N(C)C)nc(OC(=O)N(C)C)c1C [Pirimicarb, pirimicarb] | 738 | 0.6 | 454 |  |
| Cc1ccc2c(c1)sc(-c1ccc(N(C)C)cc1)[n+]2C [TFT, thioflavin-T] |  |  |  | Kd (human recombinant AChE; read-out: Kd of TFT, ref De Ferrari et al. [17]): 890 nM; Kd (human recombinant AChE; read-out: Kd of TFT, ref Sultatos and Kaushik [13]): 360 nM; Kd (murine AChE (mAChE) [3]): 1400 ± 200 nM; increase of TFT fluorescence in the presence of mAChE over free solution (murine AChE (mAChE) [3]; 10 uM TFT): 1.96 fold; Bmax, maximum specific TFT fluorescence in the presence of mAChE (murine AChE (mAChE) [3]; mean ± SEM, n = 7): 562 ± 23 fluorescent units |
